Assay results as given in patent publication US6677277B1, “Substituted sulphonyl amino(thio)carbonyl compounds and their use as herbicides” (Bayer Aktiengesellschaft, priority 1996, dated 2004).

What was measured:
Format in all cases: in vivo
[1] = system: weeds; experiment: Post-emergence test; settings: cf. Tables B-1 to B-4
Procedure: (§1) Post-emergence Test Solvent: 5 parts by weight of acetone Emulsifier: 1 part by weight of alkylaryl polyglycol ether To produce a suitable preparation of active compound, 1 part by weight of active compound is mixed with the stated amount of solvent, the stated amount of emulsifier is added and the concentrate is diluted with water to the desired concentration. Test plants which have a height of 5-15 cm are sprayed with the preparation of the active compound in such a way as to apply the particular amounts of active compound desired per unit area. The concentration of the spray liquor is chosen so that the particular amounts of active compound desired are applied in 1000 l of water/ha. After three weeks, the degree of damage to the plants is rated in % damage in comparison to the development of the untreated control. The figures denote: [table]

[2] = system: Stellaria; experiment: Post-emergence test/greenhouse; settings: for Stellaria, % damage: rated after three weeks vs untreated control
Procedure: as §1

[3] = system: Xanthium; experiment: Post-emergence test/greenhouse; settings: post-emergence; for Xanthium, % damage: rated after three weeks vs untreated control
Procedure: as §1

[4] = system: Wheat; experiment: Post-emergence test/greenhouse; settings: rated after three weeks vs untreated control
Procedure: as §1

[5] = system: Sorghum; experiment: Post-emergence test/greenhouse; settings: post-emergence; for Sorghum, % damage: rated after three weeks vs untreated control
Procedure: as §1

[6] = system: Ipomoea; experiment: Post-emergence test/greenhouse; settings: for Ipomoea, % damage: rated after three weeks vs untreated control
Procedure: as §1

[7] = system: Solanum; experiment: Post-emergence test/greenhouse; settings: post-emergence; for Solanum, % damage: rated after three weeks vs untreated control
Procedure: as §1

[8] = system: Alopecurus; experiment: Post-emergence test/greenhouse; settings: 60 g ai./ha, after three weeks
Procedure: as §1

[9] = system: Lolium; experiment: Post-emergence test/greenhouse; settings: 60 g ai./ha, after three weeks
Procedure: as §1

[10] = system: Alopecurus; experiment: Pre-emergence test/greenhouse; settings: after three weeks
Procedure: (§2) Pre-emergence Test Solvent: 5 parts by weight of acetone Emulsifier: 1 part by weight of alkylaryl polyglycol ether To produce a suitable preparation of active compound, 1 part by weight of active compound is mixed with the stated amount of solvent, the stated amount of emulsifier is added and the concentrate is diluted with water to the desired concentration. Seeds of the test plants are sown in normal soil. After about 24 hours, the soil is sprayed with the preparation of the active compound in such a way as to apply the particular amounts of active compound desired per unit area The concentration of the spray liquor is chosen so that the particular amounts of active compound desired are applied in 1000 l of water/ha. After three weeks, the degree of damage to the plants is rated in % damage in comparison to the development of the untreated control. The figures denote: [table]

[11] = system: Amaranthus; experiment: Pre-emergence test/greenhouse; settings: after three weeks
Procedure: as §2

[12] = system: Chenopodium; experiment: Pre-emergence test/greenhouse; settings: after three weeks
Procedure: as §2

[13] = system: Lolium; experiment: Pre-emergence test/greenhouse; settings: after three weeks
Procedure: as §2

[14] = system: Sorghum; experiment: Pre-emergence test/greenhouse; settings: after three weeks
Procedure: as §2

[15] = system: weeds; experiment: Pre-emergence test; settings: cf. Tables A-1 to A-5
Procedure: as §2

[16] = system: Maize; experiment: Pre-emergence test/greenhouse; settings: 60 g ai./ha, after three weeks
Procedure: as §2

[17] = system: Solanum; experiment: Pre-emergence test/greenhouse; settings: 60 g ai./ha, after three weeks
Procedure: as §2

| Structure (SMILES) | activity against weeds [1] | Stellaria, % damage ([2]; 60 g ai./ha) [%] | Xanthium, % damage ([3]; 60 g ai./ha) [%] | Wheat, % damage ([4]; 60 g ai./ha) [%] | Sorghum, % damage ([5]; 60 g ai./ha) [%] | Ipomoea, % damage ([6]; 60 g ai./ha) | Solanum, % damage ([7]; 60 g ai./ha) [%] | activity against weeds [15] | also measured |
| --- | --- | --- | --- | --- | --- | --- | --- | --- | --- |
| CCOc1nn(C(=O)NS(=O)(=O)c2c(SCC)cccc2SCC)c(=O)n1C [Example 43] | very strong activity | 90 | 100 | 20 | 70 | 95% | 95 | – | – |
| CCSc1cccc(SCC)c1S(=O)(=O)NC(=O)n1nc(CC)n(C)c1=O [Example 44] | very strong activity | 80 | 100 | 10 | 70 | 95% | 95 | – | – |
| CCSc1cccc(SCC)c1S(=O)(=O)NC(=O)n1nc(OC)n(C)c1=O [Example 46] | very strong activity | 95 | 100 | – | 70 | 9S | 95 | – | – |
| CCOc1nn(C(=O)NS(=O)(=O)c2c(C)cccc2SC)c(=O)n1C [Example 48] | very strong activity | 60 | 95 | 5 | 100 | 90% | 90 | – | – |
| CCOc1nn(C(=O)NS(=O)(=O)c2c(SC)cccc2SC)c(=O)n1C [Example 52] | very strong activity | – | – | – | – | – | – | – | % damage, Stellaria ([2]; 60 g ai./ha, after three weeks): 95%; % damage, Alopecurus [8]: 90%; % damage, Xanthium ([3]; 60 g ai./ha, after three weeks): 95%; % damage, Lolium [9]: 60%; % damage, Sorghum ([5]; 60 g ai./ha, after three weeks): 100%; % damage, Ipomoea ([6]; 60 g ai./ha, after three weeks): 90%; % damage, Solanum ([7]; 60 g ai./ha, after three weeks): 95% |
| CCSc1cccc(C)c1S(=O)(=O)NC(=O)n1nc(OC)n(C)c1=O [Example 53] | very strong activity | – | – | – | – | – | – | – | Stellaria, % damage ([2]; 125 g ai./ha): 90%; Xanthium, % damage ([3]; 125 g ai./ha): 100%; Wheat, % damage ([4]; 125 g ai./ha): 20%; Sorghum, % damage ([5]; 125 g ai./ha): 95%; Ipomoea, % damage ([6]; 125 g ai./ha): 95%; Solanum, % damage ([7]; 125 g ai./ha): 59% |
| COc1cccc(SCCF)c1S(=O)(=O)NC(=O)n1nc(OC)n(C)c1=O [Example 57] | – | – | – | – | – | – | – | very strong activity | % damage, Alopecurus ([10]; 125 g ai./ha): 100%; % damage, Amaranthus ([11]; 125 g ai./ha): 100%; % damage, Chenopodium ([12]; 125 g ai./ha): 100%; % damage, Lolium ([13]; 125 g ai./ha): 100%; % damage, Sorghum ([14]; 125 g ai./ha): 100% |
| CSc1cccc(C(F)(F)F)c1S(=O)(=O)NC(=O)n1nc(SC)n(C)c1=O [Example 62] | – | – | – | – | – | – | – | very strong activity | % damage, Maize [16]: 10%; % damage, Alopecurus ([10]; 60 g ai./ha): 100%; % damage, Amaranthus ([11]; 60 g ai./ha): 100%; % damage, Chenopodium ([12]; 60 g ai./ha): 100%; % damage, Lolium ([13]; 60 g ai./ha): 100%; % damage, Sorghum ([14]; 60 g ai./ha): 90%; % damage, Solanum [17]: 100% |
| CCc1nn(C(=O)NS(=O)(=O)c2c(SC)cccc2C(F)(F)F)c(=O)n1C [Example 63] | – | – | – | – | – | – | – | very strong activity | % damage, Maize [16]: 0%; % damage, Alopecurus ([10]; 60 g ai./ha): 100%; % damage, Amaranthus ([11]; 60 g ai./ha): 100%; % damage, Chenopodium ([12]; 60 g ai./ha): 100%; % damage, Lolium ([13]; 60 g ai./ha): 70%; % damage, Sorghum ([14]; 60 g ai./ha): 100%; % damage, Solanum [17]: 100% |
